From ChEMBL document CHEMBL1126344, “Substituted penta- and hexapeptides as potent inhibitors of herpes simplex virus type 2 ribonucleotide reductase” (Bioorg Med Chem Lett, 1992)
Starred links: 1 amine or outer side, 2 acyl side, 3 side chain; linkers in the order of their positions; H or OH if unused. Non-standard residues stand in square brackets, D forms with d. Residues, ends and D or L forms follow the SMILES beside them. *: point of attachment. X1 = O=C([C@H](Cc1ccc(O)cc1)N(Cc1cccc(Oc2ccccc2)c1)[*:1])[*:2]; X2 = O=C([C@H](Cc1ccc(O)cc1)N(c1ccc(-c2ccccc2)cc1)[*:1])[*:2]; X3 = O=C([C@H](Cc1ccc(O)cc1)N(Cc1ccsc1)[*:1])[*:2]; NBnTyr = O=C(O)[C@H](Cc1ccc(O)cc1)NCc1ccccc1; tBuAla = CC(C)(C)C[C@H](N)C(=O)O; NBn2 = c1ccc(CN(Cc2ccccc2)*)cc1; Cha = N[C@@H](CC1CCCCC1)C(=O)O; αMeL = CC(C)C[C@](C)(N)C(=O)O; Morpholide = C1CN(*)CCO1; Pyrrolidide = C1CCN(*)C1; Nva = CCC[C@H](N)C(=O)O; NHBn = c1ccc(CN*)cc1; NMeEt = CCN(C)*

Assays:
[1] = Inhibitory activity of YAGAVVNDL against Herpes Simplex Virus type 2 (HSV-2) ribonucleotide reductase determined as control; set-up: species or system Human alphaherpesvirus 2
Human alphaherpesvirus 2 = assay: Relative potency to that of YAGAVVNDL against Herpes Simplex Virus type 2 ribonucleotide reductase
[2] = target: Ribonucleotide reductase (Herpes simplex virus type 2); assay: Compound was tested in vitro for inhibitory activity against Herpes Simplex Virus type 2 ribonucleotide reductase
[3] = The compound was tested in vitro for inhibitory activity against Herpes Simplex Virus type 2 ribonucleotide reductase; set-up: species or system Human alphaherpesvirus 2

Row | SMILES | IC50 [1] [µM] | Relative potency (Human alphaherpesvirus 2) | IC50 [2] [µM] | IC50 [3] [µM]
1 | CC(C)C[C@H](NC(=O)[C@H](CC(=O)O)NC(=O)[C@H](CC(N)=O)NC(=O)[C@@H](NC(=O)[C@@H](NC(=O)Cc1ccc2ccccc2c1)C(C)C)C(C)C)C(=O)O | 30 | 6 | 5 | 
2 | CC(C)C[C@H](NC(=O)[C@H](CC(=O)O)NC(=O)[C@H](CC(=O)N1CCOCC1)NC(=O)[C@@H](NC(=O)[C@@H](NC(=O)[C@@H](N)Cc1ccc(O)cc1)C(C)C)C(C)C)C(=O)O (H-YVVD(Morpholide)DL-OH) | 22 | 36 |  | 0.6
3 | CC(C)C[C@H](NC(=O)[C@H](CC(=O)O)NC(=O)[C@H](CC(=O)N(Cc1ccccc1)Cc1ccccc1)NC(=O)[C@@H](NC(=O)[C@@H](NC(=O)[C@@H](N)Cc1ccc(O)cc1)C(C)C)C(C)C)C(=O)O (H-YVVD(NBn2)DL-OH) | 25 | 13 |  | 2
4 | CC(C)C[C@H](NC(=O)[C@H](CC(=O)O)NC(=O)[C@H](CC(=O)NCc1ccccc1)NC(=O)[C@@H](NC(=O)[C@@H](NC(=O)[C@@H](N)Cc1ccc(O)cc1)C(C)C)C(C)C)C(=O)O (H-YVVD(NHBn)DL-OH) | 22 | 5.5 |  | 4
5 | CNC(=O)C[C@H](NC(=O)[C@@H](NC(=O)[C@@H](NC(=O)[C@@H](N)Cc1ccc(O)cc1)C(C)C)C(C)C)C(=O)N[C@@H](CC(=O)O)C(=O)N[C@@H](CC(C)C)C(=O)O (H-YVVD(NHMe)DL-OH) | 21 | 11 |  | 2
6 | CC(C)C[C@H](NC(=O)[C@H](CC(=O)O)NC(=O)[C@H](CC(=O)N(C)C)NC(=O)[C@@H](NC(=O)[C@@H](NC(=O)[C@@H](N)Cc1ccc(O)cc1)C(C)C)C(C)C)C(=O)O (H-YVVD(NMe2)DL-OH) | 27 | 90 |  | 0.3
7 | CC(C)[C@H](NC(=O)[C@@H](NC(=O)[C@@H](N)Cc1ccc(O)cc1)C(C)C)C(=O)N[C@@H](CC(=O)N(C)C)C(=O)N[C@@H](CC(=O)O)C(=O)N[C@@H](CC(C)(C)C)C(=O)O (H-YVVD(NMe2)D[tBuAla]-OH) | 22 | 110 |  | 0.2
8 | CCN(C)C(=O)C[C@H](NC(=O)[C@@H](NC(=O)[C@@H](NC(=O)[C@@H](N)Cc1ccc(O)cc1)C(C)C)C(C)C)C(=O)N[C@@H](CC(=O)O)C(=O)N[C@@H](CC(C)C)C(=O)O (H-YVVD(NMeEt)DL-OH) | 10 | 25 |  | 0.4
9 | CC(C)C[C@H](NC(=O)[C@H](CC(=O)O)NC(=O)[C@H](CC(=O)N1CCCC1)NC(=O)[C@@H](NC(=O)[C@@H](NC(=O)[C@@H](N)Cc1ccc(O)cc1)C(C)C)C(C)C)C(=O)O (H-YVVD(Pyrrolidide)DL-OH) | 32 | 32 |  | 1
10 | CC(C)[C@H](NC(=O)[C@@H](NC(=O)[C@@H](N)Cc1ccc(O)cc1)C(C)C)C(=O)N[C@@H](CC(N)=O)C(=O)N[C@@H](CC(=O)O)C(=O)N[C@@H](CC1CCCCC1)C(=O)O (H-YVVND[Cha]-OH) | 16 | 0.29 |  | 55
11 | CCC[C@H](NC(=O)[C@H](CC(=O)O)NC(=O)[C@H](CC(N)=O)NC(=O)[C@@H](NC(=O)[C@@H](NC(=O)[C@@H](N)Cc1ccc(O)cc1)C(C)C)C(C)C)C(=O)O (H-YVVND[Nva]-OH) | 25 | 0.16 |  | 160
12 | CC(C)[C@H](NC(=O)[C@@H](NC(=O)[C@@H](N)Cc1ccc(O)cc1)C(C)C)C(=O)N[C@@H](CC(N)=O)C(=O)N[C@@H](CC(=O)O)C(=O)N[C@@H](CC(C)(C)C)C(=O)O (H-YVVND[tBuAla]-OH) | 43 | 3.3 |  | 13
13 | CC(C)C[C@](C)(NC(=O)[C@H](CC(=O)O)NC(=O)[C@H](CC(N)=O)NC(=O)[C@@H](NC(=O)[C@@H](NC(=O)[C@@H](N)Cc1ccc(O)cc1)C(C)C)C(C)C)C(=O)O (H-YVVND[αMeL]-OH) | 38 | 0.12 |  | 320
14 | CC(C)[C@H](NC(=O)[C@H](Cc1ccc(O)cc1)NCc1ccccc1)C(=O)N[C@H](C(=O)N[C@@H](CC(=O)N(C)C)C(=O)N[C@@H](CC(=O)O)C(=O)N[C@@H](CC(C)(C)C)C(=O)O)C(C)C (H-[NBnTyr]VVD(NMe2)D[tBuAla]-OH) | 18 | 60 |  | 0.3
15 | CC(C)C[C@H](NC(=O)[C@H](CC(=O)O)NC(=O)[C@H](CC(N)=O)NC(=O)[C@@H](NC(=O)[C@@H](NC(=O)[C@H](Cc1ccc(O)cc1)NCc1ccccc1)C(C)C)C(C)C)C(=O)O (H-[NBnTyr]VVNDL-OH) | 30 | 5 | 6 | 
16 | CC(C)[C@H](NC(=O)[C@H](Cc1ccc(O)cc1)NCc1ccccc1)C(=O)N[C@H](C(=O)N[C@@H](CC(N)=O)C(=O)N[C@@H](CC(=O)O)C(=O)N[C@@H](CC(C)(C)C)C(=O)O)C(C)C (H-[NBnTyr]VVND[tBuAla]-OH) | 35 | 23 |  | 1.5
17 | CC(C)C[C@H](NC(=O)[C@H](CC(=O)O)NC(=O)[C@H](CC(N)=O)NC(=O)[C@@H](NC(=O)[C@@H](NC(=O)[C@H](Cc1ccc(O)cc1)NCc1cccc(Oc2ccccc2)c1)C(C)C)C(C)C)C(=O)O (H-[X1]VVNDL-OH) | 40 | 3.3 |  | 12
18 | CC(C)C[C@H](NC(=O)[C@H](CC(=O)O)NC(=O)[C@H](CC(N)=O)NC(=O)[C@@H](NC(=O)[C@@H](NC(=O)[C@H](Cc1ccc(O)cc1)Nc1ccc(-c2ccccc2)cc1)C(C)C)C(C)C)C(=O)O (H-[X2]VVNDL-OH) | 34 | 1.1 |  | 32
19 | CC(C)C[C@H](NC(=O)[C@H](CC(=O)O)NC(=O)[C@H](CC(N)=O)NC(=O)[C@@H](NC(=O)[C@@H](NC(=O)[C@H](Cc1ccc(O)cc1)NCc1ccsc1)C(C)C)C(C)C)C(=O)O (H-[X3]VVNDL-OH) | 80 | 4 |  | 20
20 | CC(C)C[C@H](NC(=O)[C@H](CC(=O)O)NC(=O)[C@H](CC(N)=O)NC(=O)[C@@H](NC(=O)[C@@H](NC(=O)C(Cc1ccccc1)Cc1ccc(O)cc1)C(C)C)C(C)C)C(=O)O (stereo in doubt; form 1) | 9.5 |  | 0.45 | 
